Data set [1] has as its target T1, Ss gluconate dehydratase (Saccharolobus solfataricus, UniProt Q97U27).
T1 sequence (Q97U27 1-395): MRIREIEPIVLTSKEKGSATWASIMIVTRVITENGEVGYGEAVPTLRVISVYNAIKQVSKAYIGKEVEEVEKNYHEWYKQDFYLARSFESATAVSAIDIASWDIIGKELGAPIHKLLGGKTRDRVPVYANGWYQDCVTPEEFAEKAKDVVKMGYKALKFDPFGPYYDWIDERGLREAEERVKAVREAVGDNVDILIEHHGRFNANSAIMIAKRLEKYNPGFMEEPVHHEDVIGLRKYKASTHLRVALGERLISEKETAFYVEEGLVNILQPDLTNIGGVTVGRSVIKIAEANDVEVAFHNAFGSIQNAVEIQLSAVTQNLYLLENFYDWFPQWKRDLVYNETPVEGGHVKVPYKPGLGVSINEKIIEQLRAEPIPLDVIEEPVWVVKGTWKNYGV
The data set is described as follows: Substrate specificities of Ss gluconate dehydratase (semicarbazide method). The class given is biochemical, Sulfolobus solfataricus. The settings on record: for Relative activity (%): relative to D-gluconate; for Relative activity (%) / Reaction on substrate: 10 mM aldonic acid, 1 mM CoCl2, 50 mM Tri-HCl buffer pH 7.0, 30 min, 78 C. The arrangement: made in house; host or cells: Sulfolobus solfataricus cells (native source, not recombinant).
Procedure: (§1) The semicarbazide method was performed as follows: an enzyme reaction of a total volume a 400 μl was incubated at 78° C. in 50 mM Tris-HCl buffer, pH 7.0, with 10 mM gluconate and an enzyme solution. After 30 min, the enzyme reaction was stopped by the addition of 100 μl 2.0 M HCl. To this solution, 300 μl of semicarbazide solution (1.0% (w/v) semicarbazide hydrochloride and 1.5% (w/v) sodium acetate dissolved in distilled water) was added and incubated at 30° C. for 15 min. The final reaction mixture was diluted with 500 μl distilled water and then measured at 250 nm. The absorbance coefficient of the semicarbazone formation toward 2-keto-3-deoxy gluconate (KDG) was taken to be 0.571×10^3 M^−1 cm^−1.
(§2) For analysis of substrate specificities of gluconate dehydrates, a 10 mM solution of each aldonic acid containing carbon chains ranging from C4 to C7 were incubated together with 40 μg/mL of purified protein. […] All experiments were performed in three plicate.

In data set [2] the target is T1, Ss gluconate dehydratase.
Procedure: as §1, §2
Biochemical and kinetic parameters for the enzyme were determined using the assay method described above under standard conditions.
Values for Vmax and Km were determined from Lineweaver bulk plots. The rate dependence on substrate concentration followed Michaelis-Meten kinetics.
Data set [3] can be described thus: Temperature profile of enzyme activity. The class given is biochemical. On the procedure: The temperature profile for enzyme activity was determined between 40 and 100° C.
Data set [4] is classed as physicochemical. On the procedure: Enzyme thermostability was determined at 80, 90, and 100° C. by incubating enzyme solution (50 μg/ml) in 50 mM Tri-HCl (pH 7.2). At an appropriate time, samples were taken and completely cooled on ice and then measured for residual activities under standard conditions. The thermostability of purified gluconate dehydrates was measured at 80, 90, and 100° C.

As a reminder, the Km is the concentration of substrate that gives half-maximal velocity.

Turning to L-isovalerate [D, L-isovalerate], the “Relative activity (%)” value at Ss gluconate dehydratase [1] is 0.25%. Consider `O=C(O)C(O)CO` [D, L-glycerate], for which, on Ss gluconate dehydratase [1], the Reaction on substrate result is “No reaction on the following substrates: L-arabonate, D-xylonate, D-galacturonate, D-glucitol, D-mannonate, and D, L-glycerate”. For the molecule `O=C(O)[C@H](O)[C@@H](O)[C@H](O)[C@H](O)CO` [D-Gluconate], at Ss gluconate dehydratase [1] (10 mM substrate, 40 μg/mL purified protein, standard condition), the conversion came out at 100%. The “Relative activity (%)” value on Ss gluconate dehydratase [1] stood at 100.0%. For the same molecule, the Km at Ss gluconate dehydratase [2] (D-gluconate 0.1 to 40 mM as substrate, Lineweaver-Burk plots) stood at 16.7 mM. The “turnover number (kcat)” value on Ss gluconate dehydratase [2] (D-gluconate as substrate) came to 333 s⁻¹. Also, the Vm at Ss gluconate dehydratase [2] (D-gluconate as substrate, Lineweaver-Burk plots) worked out at 34.5 units/mg. For `O=C(O)[C@@H](O)[C@@H](O)[C@H](O)[C@H](O)CO` [D-mannonate], the Reaction on substrate result at Ss gluconate dehydratase [1] is “No reaction on the following substrates: L-arabonate, D-xylonate, D-galacturonate, D-glucitol, D-mannonate, and D, L-glycerate”. Turning to `O=C(O)[C@H](O)[C@@H](O)[C@@H](O)[C@H](O)CO` [D-Galactonate], the “Relative activity (%)” value at Ss gluconate dehydratase [1] is 2.8%. On the same count and under the same terms, under D-Galactoheptonate stands 1.6%.

`O=C(O)[C@H](O)[C@@H](O)[C@@H](O)CO` [L-arabonate]: the Reaction on substrate result at Ss gluconate dehydratase [1] is “No reaction on the following substrates: L-arabonate, D-xylonate, D-galacturonate, D-glucitol, D-mannonate, and D, L-glycerate”. Same read-out and setting: the result for `OC[C@@H](O)[C@@H](O)[C@H](O)[C@@H](O)CO` [D-glucitol] reads “No reaction on the following substrates: L-arabonate, D-xylonate, D-galacturonate, D-glucitol, D-mannonate, and D, L-glycerate”. Consider `O=C(O)[C@@H](O)[C@H](O)[C@H](O)CO` [D-Arabonate], for which the “Relative activity (%)” value on Ss gluconate dehydratase [1] amounted to 0.7%.

As to `O=C[C@H](O)[C@@H](O)[C@@H](O)[C@H](O)C(=O)O` [D-galacturonate], the Reaction on substrate entry on Ss gluconate dehydratase [1] was “No reaction on the following substrates: L-arabonate, D-xylonate, D-galacturonate, D-glucitol, D-mannonate, and D, L-glycerate”. As to `O=C(O)[C@H](O)[C@@H](O)[C@H](O)CO` [D-xylonate], the Reaction on substrate entry at Ss gluconate dehydratase [1] is “No reaction on the following substrates: L-arabonate, D-xylonate, D-galacturonate, D-glucitol, D-mannonate, and D, L-glycerate”.

B1: gluconate dehydratase: thermostable gluconate dehydratase purified from Sulfolobus solfataricus P2, SEQ ID NO:2, octamer (protein, listed as Sulfolobus solfataricus)
chain: T1 sequence (Q97U27 1-395)
modifications: octamer
B1: in data set [3], the “Enzyme activity below 60° C.” value is “not detectable”. Besides, the “enzyme activity after incubation at 90° C.” value in data set [4] (90° C., 2 hour incubation, 50 μg/ml enzyme in 50 mM Tri-HCl pH 7.2) was “below 50%”. The “thermostability at 80° C.” value in data set [4] (pH 7.2) was “very stable over 2 hours”.

Source of the values: US8383375B2 (Posco, priority 2004, dated 2013).
